Data: article PMC3280956, “DOGS: Reaction-Driven de novo Design of Bioactive Compounds” (PLoS Computational Biology, 2012)
Each block holds one compound with its values, some of them ahead of it.

Legend:
γ-secretase = γ-secretase (Homo sapiens, UniProt P49768); experiment: Aβ sandwich ELISA in supernatants of CHO cells overexpressing human APP and presenilin-1; format: cell-based; conditions: for Modulation of γ-secretase activity (type): Aβ38/40/42 ELISA, 0.1-40 μM
Description: One-step reactions yielded the desired products in both cases. […] Synthesized compounds were tested for their ability to modulate the γ-secretase product spectrum as previously described. CHO cells with stable overexpression of human APP and presenilin-1 were treated with increasing concentrations of 3 and 4. Subsequently, concentrations of secreted Aβ peptides were detected in cell supernatants by sandwich ELISA using C-terminus specific antibodies that distinguish between Aβ38, Aβ40, and Aβ42 peptide species. […] This pattern of inverse γ-secretase modulation has previously been observed, e.g. with derivatives of the non-steroidal anti-inflammatory drug indomethacin [35]. […] Compounds 3 and 4 can serve as tool compounds and – more importantly – as starting points for an optimization of the pharmacological profile by structural modification. […]
Figure S5. Modulation of γ-secretase activity by designed compounds 3 (A) and 4 (B). Both […]
higher levels of Aβ42. Concentrations of secreted Ab peptides were detected in cell supernatants by sandwich ELISA using C-terminus specific antibodies that distinguish between Aβ38, Aβ40, and Aβ42 peptide species as previously described.

Trypsin = conditions: cited from earlier work
Thrombin = conditions: cited from earlier work
Trypsin (bovine) = target: Trypsin (bovine); set-up: method as in PMID 15771442; conditions: cited from earlier work
5-HT1D receptor = 5-HT1D receptor (Homo sapiens, UniProt P28221); experiment: Cerep GPCR panel, antagonistic effect on 5-HT1D receptor; format: cell-based
hH4R = target: T1, hH4R (Homo sapiens, UniProt Q9H3N8); experiment: Competitive binding, displacement of [3H]histamine, Sf9 membranes expressing hH4R; conditions: three measurements
T1 construct: made in house; host or cells: insect Sf9 cells (membrane preparations)
Description: (§1) In order to test for the hypothesis that a combination of the features – as found in compound 7 – might lead to hH4R affinity, compound 7 was selected for synthesis and testing. […] Binding affinity of compound 7 was determined in a competitive binding assay by measuring displacement of radioactively labeled [^3H]histamine bound to hH4R [42]. Membrane preparations of insect Sf9 cells expressing hH4R together with G-protein subunits Gαi2 and Gβ1γ2 were performed to yield the protein. A similar assay was used to measure the activity on hH3R (reference ligand: [^3H]N ^α-methylhistamine).

κ opioid receptor = κ opioid receptor (Homo sapiens, UniProt P41145)
hH3R = hH3R (Homo sapiens, UniProt Q9Y5N1); experiment: Competitive binding, displacement of [3H]Nα-methylhistamine at hH3R; conditions: averaged over four distinct tests
Description: as §1

other GPCRs in the panel = experiment: Cerep panel, other human GPCRs; format: cell-based; conditions: remaining GPCRs of the 30-receptor panel
δ2 opioid receptor = δ2 opioid receptor (Homo sapiens, UniProt P41143); experiment: Cerep GPCR panel, antagonistic effect on δ2 opioid receptor; format: cell-based; conditions: n = 2
Chain of δ2 opioid receptor (P41143 whole entry): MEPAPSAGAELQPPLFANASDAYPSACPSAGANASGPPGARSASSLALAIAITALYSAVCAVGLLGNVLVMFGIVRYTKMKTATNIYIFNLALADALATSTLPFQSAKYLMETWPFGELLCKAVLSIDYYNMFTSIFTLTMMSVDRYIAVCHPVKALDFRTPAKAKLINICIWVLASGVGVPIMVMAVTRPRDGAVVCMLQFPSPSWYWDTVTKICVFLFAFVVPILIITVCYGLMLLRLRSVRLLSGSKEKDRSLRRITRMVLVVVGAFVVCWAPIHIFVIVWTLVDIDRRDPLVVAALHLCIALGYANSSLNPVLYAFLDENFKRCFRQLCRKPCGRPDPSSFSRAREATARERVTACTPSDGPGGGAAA

Chain of 5-HT1D receptor (P28221 whole entry): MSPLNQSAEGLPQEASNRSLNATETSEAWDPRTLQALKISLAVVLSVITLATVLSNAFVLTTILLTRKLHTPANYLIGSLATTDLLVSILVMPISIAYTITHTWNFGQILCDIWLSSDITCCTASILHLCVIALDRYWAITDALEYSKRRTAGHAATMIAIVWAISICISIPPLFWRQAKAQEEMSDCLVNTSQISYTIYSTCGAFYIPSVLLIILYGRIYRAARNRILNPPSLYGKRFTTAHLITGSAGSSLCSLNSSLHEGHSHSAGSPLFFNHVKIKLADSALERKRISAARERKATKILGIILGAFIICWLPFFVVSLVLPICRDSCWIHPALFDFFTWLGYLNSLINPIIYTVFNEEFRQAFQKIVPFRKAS
Chain of hH3R (Q9Y5N1 whole entry): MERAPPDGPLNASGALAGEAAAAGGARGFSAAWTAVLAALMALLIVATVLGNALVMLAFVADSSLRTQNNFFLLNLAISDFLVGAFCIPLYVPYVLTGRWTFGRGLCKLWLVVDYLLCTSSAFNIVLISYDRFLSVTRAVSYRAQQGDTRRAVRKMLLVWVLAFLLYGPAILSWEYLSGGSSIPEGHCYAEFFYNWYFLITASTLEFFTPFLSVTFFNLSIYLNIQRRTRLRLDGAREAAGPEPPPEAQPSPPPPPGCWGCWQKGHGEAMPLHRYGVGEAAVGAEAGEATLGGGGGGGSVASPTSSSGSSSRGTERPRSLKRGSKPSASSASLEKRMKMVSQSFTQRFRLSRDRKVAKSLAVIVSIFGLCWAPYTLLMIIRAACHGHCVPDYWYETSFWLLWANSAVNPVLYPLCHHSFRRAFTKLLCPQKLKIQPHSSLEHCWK
Chain of κ opioid receptor (P41145 whole entry): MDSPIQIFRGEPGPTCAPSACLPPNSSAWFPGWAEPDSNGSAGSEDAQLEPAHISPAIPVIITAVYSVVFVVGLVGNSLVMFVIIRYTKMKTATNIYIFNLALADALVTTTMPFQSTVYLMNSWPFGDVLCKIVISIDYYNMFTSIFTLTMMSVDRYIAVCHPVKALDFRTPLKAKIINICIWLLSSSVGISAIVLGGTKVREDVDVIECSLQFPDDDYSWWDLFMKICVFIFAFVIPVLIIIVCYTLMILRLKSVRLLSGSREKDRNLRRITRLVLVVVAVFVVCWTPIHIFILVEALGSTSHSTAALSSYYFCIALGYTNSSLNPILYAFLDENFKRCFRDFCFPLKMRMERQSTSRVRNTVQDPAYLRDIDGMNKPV

Structure (SMILES): CN(C)C(=O)COC(=O)Cc1ccc(OC(=O)c2ccc(NC(=N)N)cc2)cc1 [Camostat]
Ki (Trypsin): 50.6 nM

Structure (SMILES): CC1=CCN(C(=O)C(Cc2cccc(C(=N)N)c2)NS(=O)(=O)c2ccc3c(c2)CN(C)CC3)C(C(=O)O)C1 (stereo not drawn) [UK-156406]
Ki (Trypsin): 26 nM
Ki (Thrombin): 0.46 nM

Structure (SMILES): CN[C@H](Cc1ccccc1)C(=O)N1CCC[C@H]1C(=O)N[C@H](C=O)CCCN=C(N)N [Efegatran]
Ki (Thrombin): 18 nM
Ki (Trypsin (bovine)): 9.1 nM

Structure (SMILES): N=C(N)Nc1ccc(C(=O)Oc2ccc(SCCN3C(=O)CCC3=O)cc2)cc1 [Patamostat]
IC50 (Trypsin): 39 nM
IC50 (Thrombin): 1900 nM

Continued, in another order:

Modulation of γ-secretase activity (type) (γ-secretase): inverse modulators
Aβ38 levels (γ-secretase; secreted Aβ38, CHO cells, increasing concentrations): decrease
Aβ42 levels (γ-secretase; secreted Aβ42, CHO cells, increasing concentrations): dose-dependent increase
Structure (SMILES): COc1cc(-n2c(C)ccc2C)c(OC)cc1NC(=O)c1ccccc1 [Compound 3]

Modulation of γ-secretase activity (type) (γ-secretase): inverse modulators
Structure (SMILES): COc1ccc(N2CCN(C(=O)c3ccc(-c4cc(C(F)(F)F)ccc4Cl)o3)CC2)cc1 [Compound 4]

IC50 (5-HT1D receptor; reference compound): 1100 nM
Structure (SMILES): CSc1ccc2c(c1)C(N1CCN(C)CC1)Cc1ccccc1S2 (stereo not drawn) [methiothepin, reference compound]

Ki (hH4R): 436000 ± 137000 nM
agonistic effect, % of the effect of the reference agonist U50488 (κ opioid receptor): 21%
Ki (hH3R): 466000 ± 209000 nM
residual activity of the receptor (5-HT1D receptor; antagonistic effect, n = 2): 62%
residual activity of the receptor (δ2 opioid receptor): 76%
Structure (SMILES): Clc1cccc(-c2cn(CCOCCN3CCNCC3)nn2)c1 [Compound 7]
response at other GPCRs in the panel (other GPCRs in the panel): only weak responses in the single digit or low double-digit percent range
